Source: patent publication US6407125B1, “Pharmacological agent and method of treatment” (Novactyl, Inc., priority 1995, dated 2002)

Assays:
plantar wart = experiment: Topical treatment of virus-induced plantar ulcer; assay type: in vivo, human
Protocol: A patient with recurrent plantar wart of about 2 cm in diameter was treated with topical picolinic acid. The patient, a pathologist who had difficulty walking because of the pain caused by the ulcer, had experimented with numerous medications for more than three months without any significant results prior to treatment with the picolinic acid. It is relevant to note that many plantar ulcers are transformed into malignant tumors.
The patient was treated with a solution of 10% picolinic acid in deionized water for one week. […] They then were treated with 10% picolinic acid in Aquaphor. The ointment was placed on the ulcer and on a patch. The patch was replaced every 24 hours.

[1] = Topical treatment of psoriasis; assay type: in vivo, human; conditions: preliminary information
From the text: Several patients suffering from proliferative skin disorders such as psoriasis have been included in a recent ongoing study of the anti-proliferative effects of topical picolinic acid. […] The patients may be treated with a topical application of approximately 5% to 20% picolinic acid, or a derivative thereof, in an absorption base. Alternatively, the patient may be treated with a solution containing approximately 5% to 20% picolinic acid, or derivative, in deionized water. The topical preparation may be applied twice a day or in an alternative pharmacologically acceptable regimen.

metastatic colon cancer = experiment: Oral treatment of metastatic colon cancer, case; assay type: in vivo, human
From the text: The inventor has determined that systemic administration of picolinic acid or derivatives is effective in controlling various cancers with reduced side effects by mechanisms heretofore unknown or unanticipated. […] The patient's condition improved. Based upon known mechanisms of action, the inventor anticipated that the patient may become anemic due to the concomitant chelation of iron. However, the inventor discovered a completely novel response. Over the course of several weeks, the patent's hematocrit increased. The inventor determined that the increase in hemoglobin along with the clinical improvement, is a result of synergistic mechanisms. First, the chelation of the iron suppressed tumor angiogenesis and induce killer T-cell formation. Furthermore, the chelated iron appears to be actively and usefully transported to bone marrow to support hematopoesis.
The subject is a person with metastatic colon cancer. The subject presented with an enlarged lymph node in the neck. The lymph node was putting pressure on nerves causing a drooping of the subject's right eyelid. […] Treatment was initiated with 500 mg of picolinic acid in capsule form, by mouth twice daily. […] An aspiration needle biopsy of the lymph node was attempted but had to be repeated due to the fact that the pathologist was withdrawing necrotic tissue from the lymph node. […] The protocol includes increasing the dosage up to 2000 mg per day, or more, if required.

[2] = test system: Microbial and fungal growth; experiment: Preservative effect on microbial and fungal growth in foods; conditions: used as preservative
From the text: The chelating agents of the present invention can be used as preservatives in perishable items such as foods and pharmaceuticals and to prevent fungal growth on the surface of fresh fruits. Presently chemicals such as citrashine orthophenilphenol thiabendazole are used. […] Microbial and fungal growth is inhibited while the food components are unaffected. The preservative of the present invention has less likelihood of toxicity or untoward reactions if ingested that the present, complex chemical antifungals. The preferred concentration of picolinic acid or acceptable derivative for this use is approximately below 0.025% to be classified as a preservative. Of course, greater percentages, e.g. up to 99.9% also would be effective.

metastatic breast cancer = experiment: Topical treatment of metastatic breast cancer to skin and bone of the skull; assay type: in vivo, human; conditions: 10% in Aquaphor, changed twice daily, approximately 35 days
Protocol: A person with metastatic breast cancer to the skin and bone of the skull was treated with a topical preparation of 10% picolinic acid in Aquaphor. The preparation was applied to the cancerous lesions and to a bandage and changed twice daily. The multiple cancer lesions were approximately 1 to 1.5 cm in diameter.

osteosarcoma = experiment: Oral treatment of osteosarcoma in canine; assay type: in vivo, dog; conditions: 500 mg capsules twice daily, six days after initiating treatment
Protocol: The subject animal was a Bichon Frise dog that was diagnosed by a veterinarian with osteosarcoma. The osteosarcoma had invaded the dog's mandible and was encroaching on the lower portion of the orbit. The veterinarian began treatment with picolinic acid. The dog was administered 500 mg of picolinic acid, in capsules, twice daily. Six days after initiating treatment the veterinarian documented that the osteosarcoma had reduced approximately 40% in size. One week later the veterinarian observed that the tumor looked “necrotic”. The veterinarian incised the skin above the tumor and removed fluid from the center of the tumor.

WI-38 cells = experiment: Growth of WI-38 cells (total cell protein, cell number); assay type: cell-based; conditions: 3 mM picolinic acid
Protocol: (§1) Cells were plated at 1.5×10^5 cells/60-mm dish; 48 hours later, the medium was removed, and new media with or without 3 mM picolinic acid was added. Total cell protein was determined at the indicated times; each point is the average of triplicate measurements from 2 cultures.
(§2) In initial experiments to examine the effects of fusaric acid on cell growth and viability, WI-38 and LoVo cells were incubated for 24 to 72 hours in medium with or without various doses of fusaric acid (0.1-1 mM). The growth of both WI-38 and LoVo cells was inhibited by 500 μM fusaric acid in a time and dose dependent manner, as shown below in Table 2.

cells = conditions: cited from earlier work
recombinant MPS-1 = recombinant MPS-1 (Homo sapiens, UniProt P42677); experiment: Gel shift assay of zinc dependent binding of recombinant MPS-1 to DNA; 65Zn removal from MPS-1; assay type: biochemical
From the text: MPS-1 is a ubiquitous tumor marker and cell growth stimulator and is described in detail in the inventor's U.S. Pat. No. Re.35,585 (U.S. Pat. No. 5,243,041). MPS-1 has one zinc finger domain of the type CCCC. […] This is detected by a change in the electrophoretic mobility of MPS-1 under non-denaturing conditions. These experiments indicate that picolinic acid and derivatives should remove zinc and denature various types of zinc finger or zinc ring proteins, whether known or heretofore undiscovered, including viral proteins such as nucleocapsid p7 proteins, as will be explained further. Furthermore, the inventor has determined that any chemical compound, whether known or heretofore undiscovered, that will remove the zinc (or other metal) and denature the proteins or that will form a ternary complex (protein-zinc-chelator) can be effective as a therapeutic agent or as an autologous immune response modulator, as will be discussed in greater detail below.

LoVo cells = experiment: Growth of LoVo cells (total cell protein, cell number, DNA synthesis); assay type: cell-based, human; conditions: 3 mM picolinic acid
Protocol: as §1, §2
After 30 hours of treatment with 500 μM fusaric acid, there was a prominent decrease in cell number. DNA synthesis was completely (100%) inhibited by 24 hours. When treated with 500 μM fusaric acid, the majority of the LoVo cells acquired a rounded morphology by 48 hours.
However, after 100 hours, an increase in cell number was noted after 25 additional hours.

## O=C(O)c1ccccn1 [picolinic acid, 2-Pyridine carboxylic acid]
Plantar wart; 10% solution in deionized water for one week
  plantar ulcer appearance: Central necrosis was noted
Plantar wart; then 10% in Aquaphor on ulcer and patch, additional three weeks
  plantar ulcer outcome: the plantar ulcer resolved
[1]
  regression of psoriasis: significant effect in inducing regression of the psoriasis
Metastatic colon cancer; 500 mg capsule by mouth twice daily, within 72 hours, palpation
  estimated reduction in mass of cancerous lymph node: over 50%
Metastatic colon cancer; 500 mg picolinic acid twice daily
  tolerability: tolerating treatment well
Metastatic colon cancer; oral picolinic acid, over several weeks
  hematocrit: increased
[2]
  microbial and fungal growth: inhibited
Metastatic breast cancer
  cancer lesion outcome: resolved with scar tissue forming
osteosarcoma
  reduction in size of osteosarcoma: approximately 40%
WI-38 cells; up to 72 hours of treatment
  toxic effects on WI-38 cells: no toxic effects
WI-38 cells; within 24 hours
  growth of WI-38 cells: inhibited
WI-38 cells; within 24 hours of removal of the agent
  reversibility of growth inhibition: reversible
cells
  incorporation of iron into the cells: inhibits incorporation of iron into the cells
  removal of radioiron from the cells: effectively removes radioiron from the cells
Recombinant MPS-1; CCCC zinc finger, change in electrophoretic mobility, non-denaturing conditions
  removal of radioactive 65Zn from MPS-1: remove radioactive 65Zn from MPS-1
Recombinant MPS-1; gel shift assays
  zinc dependent binding of recombinant MPS-1 to DNA: inhibit the zinc dependent binding of recombinant MPS-1 to DNA
LoVo cells
  growth of LoVo cells: inhibited
